This is an account of results in article PMC2862695 (The Journal of organic chemistry, 2009).

The subject of experiment [1] is panel of 442 kinases. Nature of the experiment: kinase selectivity panel of 442 kinases. The format is binding. Particulars: 10 μM, 386 nonmutant.
For experiment [2], the target named is MEK1 (Homo sapiens, UniProt Q02750). Briefly: dissociation constant against MEK1. The format is binding. Particulars: read-out: Kd MEK1.
For experiment [3], the target named is EGFR (Homo sapiens, UniProt P00533). Nature of the experiment: dissociation constant against EGFR. The class given is binding. Particulars: read-out: Kd EGFR.
The test system of experiment [4] is iron-mediated neuronal damage. Conditions: likely by reduced phosphorylation of hemeoxygenase by ERK; cited from earlier work.

Chain of EGFR (P00533 25-1210): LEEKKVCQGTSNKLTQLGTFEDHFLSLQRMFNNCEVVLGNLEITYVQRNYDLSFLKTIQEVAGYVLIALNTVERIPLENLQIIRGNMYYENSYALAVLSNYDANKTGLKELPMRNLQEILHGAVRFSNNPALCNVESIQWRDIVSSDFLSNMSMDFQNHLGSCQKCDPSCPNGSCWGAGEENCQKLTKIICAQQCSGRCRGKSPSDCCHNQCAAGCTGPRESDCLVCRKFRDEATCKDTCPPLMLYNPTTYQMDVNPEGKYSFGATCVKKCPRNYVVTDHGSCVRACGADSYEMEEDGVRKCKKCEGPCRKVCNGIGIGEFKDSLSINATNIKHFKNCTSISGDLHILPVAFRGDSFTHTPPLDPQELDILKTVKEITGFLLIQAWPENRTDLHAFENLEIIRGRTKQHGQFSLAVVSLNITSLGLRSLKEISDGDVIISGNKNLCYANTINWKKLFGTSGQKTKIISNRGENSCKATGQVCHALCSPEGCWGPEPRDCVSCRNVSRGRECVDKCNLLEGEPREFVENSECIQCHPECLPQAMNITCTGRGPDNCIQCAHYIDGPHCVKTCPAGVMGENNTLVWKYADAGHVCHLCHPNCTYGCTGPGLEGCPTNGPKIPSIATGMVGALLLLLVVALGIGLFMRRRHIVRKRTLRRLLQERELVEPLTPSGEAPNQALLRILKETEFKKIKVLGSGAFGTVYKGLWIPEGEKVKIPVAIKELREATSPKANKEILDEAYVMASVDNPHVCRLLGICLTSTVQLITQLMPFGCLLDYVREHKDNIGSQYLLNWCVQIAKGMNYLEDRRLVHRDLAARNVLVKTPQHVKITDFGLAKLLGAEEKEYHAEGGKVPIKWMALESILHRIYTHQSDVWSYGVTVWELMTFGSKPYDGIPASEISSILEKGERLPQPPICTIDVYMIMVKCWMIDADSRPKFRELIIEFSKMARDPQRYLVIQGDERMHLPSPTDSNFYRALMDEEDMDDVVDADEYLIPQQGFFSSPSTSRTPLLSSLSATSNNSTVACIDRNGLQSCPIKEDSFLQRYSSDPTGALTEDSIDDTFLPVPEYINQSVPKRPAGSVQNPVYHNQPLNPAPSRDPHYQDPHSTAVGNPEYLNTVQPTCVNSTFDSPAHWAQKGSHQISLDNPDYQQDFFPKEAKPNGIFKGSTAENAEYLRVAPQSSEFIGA
Chain of MEK1 (Q02750 whole entry): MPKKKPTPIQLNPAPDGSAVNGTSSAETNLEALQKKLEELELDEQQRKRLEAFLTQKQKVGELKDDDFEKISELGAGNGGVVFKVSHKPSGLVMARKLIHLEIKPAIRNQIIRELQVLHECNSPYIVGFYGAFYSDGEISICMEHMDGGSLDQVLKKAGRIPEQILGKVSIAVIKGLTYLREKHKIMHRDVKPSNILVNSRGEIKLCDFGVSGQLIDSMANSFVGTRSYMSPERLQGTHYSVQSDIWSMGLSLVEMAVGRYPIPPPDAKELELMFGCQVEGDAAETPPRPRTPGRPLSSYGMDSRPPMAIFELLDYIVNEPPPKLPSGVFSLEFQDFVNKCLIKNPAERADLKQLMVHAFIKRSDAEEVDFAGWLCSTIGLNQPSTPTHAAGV

Regarding `Nc1[nH]nc2nnc(-c3c(-c4ccccc4)nn4ccccc34)cc12` [FR180204], in experiment [1], the “number of nonmutant kinases with >90% inhibition of kinase activity” value was 29/386 and the “number of nonmutant kinases with >99% inhibition of kinase activity” value is recorded as 12 out of 386. Also, the Kd (as a rule, the constant that tells how readily two partners part at equilibrium) in experiment [2] is 8.7 µM. Besides, the Kd in experiment [3] stood at 1.2 µM. Besides, the “effect on iron-mediated neuronal damage caused by hemoglobin breakdown” value in experiment [4] is “can reduce iron-mediated neuronal damage”.
